Data published in patent publication US20120122727A1, “IN VITRO METHOD FOR PREDICTING WHETHER A COMPOUND IS GENOTOXIC IN VIVO” (priority 2009, published 2012).

Columns and labels:
[1] = system: primary mouse hepatocytes
[2] = system: primary mouse hepatocytes; assay: Gene expression in primary mouse hepatocytes, GTX vs non-GTX (four-gene classifier, 24 h)
[3] = system: primary mouse hepatocytes; assay: Gene expression (Affymetrix Mouse Genome 430 2.0) in primary mouse hepatocytes, true vs false GTX, 24 h and 48 h

Substance: Mitomycin C [MitC]
- Gene expression data AF204959 (Cyp3a25 /// LOC622249) [1]: 0.8169
- score 1700007K13RIK [2]: 1
- score DDIT4L [2]: 1
- score GAS2L3 [2]: 1
- score SPC25 [2]: 1
- Gene expression AA561726 average [3]: −4.372
- Gene expression AF000969 average [3]: −3.3606
- Gene expression AF022072 average [3]: −3.37
- Gene expression AF033112 average [3]: 2.219
- Gene expression AF055573 average [3]: −2.916
- Gene expression AF069954 average [3]: 2.26
- Gene expression AF297615 average [3]: 1.841
- Gene expression AF335325 average [3]: 1.755
- Gene expression AI594683 average [3]: 4.611
- Gene expression AI747296 average [3]: −2.056
- Gene expression AK005731 average [3]: 6.089
- Gene expression AK007854 average [3]: 1.5
- Gene expression AK010447 average [3]: −1.6388
- Gene expression AK010738 average [3]: 1.98
- Gene expression AK014608 average [3]: 2.8746
- Gene expression AK017734 average [3]: 1.835
- Gene expression AK018383 average [3]: 0.994
- Gene expression AK019979 average [3]: −3.757
- Gene expression AV095209 average [3]: −2.78
- Gene expression AV141095 average [3]: −2.411
- Gene expression AV173869 average [3]: −2.2889
- Gene expression AV216768 average [3]: −4.149
- Gene expression AV219418 average [3]: 4.168
- Gene expression AV221299 average [3]: −3.71
- Gene expression AV246296 average [3]: 1.4788
- Gene expression AV251625 average [3]: 2.477
- Gene expression AV254764 average [3]: 1.411
- Gene expression AV327248 average [3]: 4.918
- Gene expression BB009155 average [3]: 2.9201
- Gene expression BB027848 average [3]: 1.879
- Gene expression BB043558 average [3]: 2.332
- Gene expression BB046347 average [3]: 1.35
- Gene expression BB140436 average [3]: −1.601
- Gene expression BB204486 average [3]: −4.144
- Gene expression BB223872 average [3]: 2.201
- Gene expression BB246912 average [3]: −1.866
- Gene expression BB275142 average [3]: 2.282
- Gene expression BB458460 average [3]: −2.7207
- Gene expression BB463610 average [3]: 2.728
- Gene expression BB730977 average [3]: −2.36
- Gene expression BB743970 average [3]: 3.5588
- Gene expression BB770528 average [3]: 2.0332
- Gene expression BB781615 average [3]: 0.8952
- Gene expression BC003284 average [3]: 2.093
- Gene expression BC004827 average [3]: −3.639
- Gene expression BC005552 average [3]: −1.342
- Gene expression BC006713 average [3]: 1.2958
- Gene expression BC010318 average [3]: −1.729
- Gene expression BC012247 average [3]: 2.2674
- Gene expression BC012955 average [3]: −2.241
- Gene expression BC013893 average [3]: 1.864
- Gene expression BC017615 average [3]: −3.947
- Gene expression BC019379 average [3]: −2.7493
- Gene expression BC019882 average [3]: 2.442
- Gene expression BC021352 average [3]: 3.121
- Gene expression BC022148 average [3]: 2.668
- Gene expression BC025169 average [3]: −3.296
- Gene expression BC026131 average [3]: −0.9986
- Gene expression BC027026 average [3]: 2.873
- Gene expression BC027121 average [3]: 2.742
- Gene expression BC027185 average [3]: 2.115
- Gene expression BE956581 average [3]: 3.68
- Gene expression BF719766 average [3]: 2.112
- Gene expression BG065754 average [3]: 1.3079
- Gene expression BG066491 average [3]: −1.929
- Gene expression BG076151 average [3]: 2.5119
- Gene expression BG076333 average [3]: −1.87
- Gene expression BG797099 average [3]: 2.6244
- Gene expression BG967046 average [3]: 1.305
- Gene expression BI651416 average [3]: 2.2069
- Gene expression BI966443 average [3]: 4.094
- Gene expression BM198879 average [3]: 1.928
- Gene expression BM200015 average [3]: 1.702
- Gene expression BM230508 average [3]: 2.571
- Gene expression BM936480 average [3]: 2.006
- Gene expression BQ174991 average [3]: −2.777
- Gene expression L21027 average [3]: −4.612
- Gene expression NM_007556 average [3]: −4.012
- Gene expression NM_007980 average [3]: 2.9391
- Gene expression NM_007987 average [3]: 2.2406
- Gene expression NM_008522 average [3]: 5.9249
- Gene expression NM_008935 average [3]: −3.601
- Gene expression NM_009897 average [3]: 4.658
- Gene expression NM_011075 average [3]: 3.096
- Gene expression NM_011176 average [3]: 1.856
- Gene expression NM_011316 average [3]: 2.256
- Gene expression NM_012006 average [3]: 3.166
- Gene expression NM_013642 average [3]: −0.7845
- Gene expression NM_013738 average [3]: 2.749
- Gene expression NM_013929 average [3]: 2.481
- Gene expression NM_018881 average [3]: 2.279
- Gene expression NM_019738 average [3]: −2.772
- Gene expression NM_030697 average [3]: 3.958
- Gene expression NM_053122 average [3]: −4.049
- Gene expression NM_134147 average [3]: −2.8471
- Gene expression NM_134188 average [3]: 0.4786
- Gene expression X62701 average [3]: −1.3159
- Gene expression data AF000969 (Cadps2) [3]: −2.406
- Gene expression data AF022072 (Grb10) [3]: −3.6802
- Gene expression data AF065917 (Lif) [3]: 1.033
- Gene expression data AF297615 (Ggta1) [3]: 2.358
- Gene expression data AI594683 (Dmn) [3]: 3.671
- Gene expression data AI596632 (Ptprg /// LOC632664) [3]: −4.795
- Gene expression data AI987929 (Ndrg1) [3]: −3.324
- Gene expression data AK004419 (Fbxl17) [3]: −4.0931
- Gene expression data AK005731 (1700007K13Rik) [3]: 5.7645
- Gene expression data AK007766 (1810044A24Rik) [3]: −2.227
- Gene expression data AK007854 (1810053B23Rik) [3]: 2.898
- Gene expression data AK009736 (Gpr137b /// LOC664862 /// LOC673335) [3]: −1.056
- Gene expression data AK010447 (Smyd3) [3]: −1.439
- Gene expression data AK014608 (4632434l11Rik) [3]: 2.3711
- Gene expression data AK019979 (2610528E23Rik) [3]: −3.317
- Gene expression data AV095209 (Mthfd1l) [3]: −2.454
- Gene expression data AV141095 (1110033M05Rik) [3]: −2.287
- Gene expression data AV173571 (1700106N22Rik) [3]: −2.287
- Gene expression data AV219418 (Ldhb) [3]: 2.873
- Gene expression data AV223474 (Zdhhc14) [3]: −2.283
- Gene expression data AV298304 (Homez) [3]: 1.9706
- Gene expression data AV327248 (Zfp365 /// LOC674611) [3]: 4.258
- Gene expression data AV377066 (9130221J18Rik) [3]: 2.462
- Gene expression data AW240761 (Tbc1d5) [3]: −2.643
- Gene expression data AW543460 (Pard3) [3]: −3.164
- Gene expression data AW543723 [3]: 2.3145
- Gene expression data AW986246 (Maoa) [3]: −0.2119
- Gene expression data BB027848 (4732466D17Rik) [3]: 2.18
- Gene expression data BB043558 (9230114K14Rik) [3]: 2.308
- Gene expression data BB275142 (AW456874) [3]: 1.944
- Gene expression data BB308836 (Ppm1l) [3]: −1.64
- Gene expression data BB318221 (Zdhhc14) [3]: −2.706
- Gene expression data BB463610 (4632434l11Rik) [3]: 2.535
- Gene expression data BB526605 (Mipol1) [3]: −2.035
- Gene expression data BB770528 (Rai2) [3]: 2.603
- Gene expression data BB821363 (Scfd2) [3]: −2.485
- Gene expression data BC004827 (Psat1) [3]: −2.4733
- Gene expression data BC008626 (Icam1) [3]: 2.3005
- Gene expression data BC010462 (BC010462) [3]: 1.163
- Gene expression data BC012247 (Dcxr) [3]: 2.094
- Gene expression data BC012260 (Psmf1) [3]: 2.237
- Gene expression data BC015270 (Hist2h3c2) [3]: 0.6339
- Gene expression data BC016073 (Cdkal1) [3]: −1.963
- Gene expression data BC016265 (Ube2e2) [3]: −2.202
- Gene expression data BC019882 (Acaa1b) [3]: 3.446
- Gene expression data BC025501 (Aaas) [3]: 2.023
- Gene expression data BC025837 (Sbk1) [3]: 1.652
- Gene expression data BC025915 (Cova1) [3]: −1.619
- Gene expression data BC026422 (Tgm1) [3]: 2.651
- Gene expression data BF719766 (Thyn1) [3]: 2.045
- Gene expression data BG065754 (Ccng1) [3]: 1.179
- Gene expression data BG066903 (Kif16b) [3]: −1.047
- Gene expression data BG069873 (Gnb1l) [3]: 2.175
- Gene expression data BG070887 (Gtdc1) [3]: −2.356
- Gene expression data BG076151 (Ppm1d) [3]: 2.238
- Gene expression data BG261907 (Large) [3]: −3.876
- Gene expression data BI651416 (Cdc42bpg) [3]: 2.482
- Gene expression data BI660702 (Ell3) [3]: 3.742
- Gene expression data BM198879 (Ercc5) [3]: 2.012
- Gene expression data BM230508 (A030007D23Rik) [3]: 2.556
- Gene expression data NM_007987 (Fas) [3]: 2.6645
- Gene expression data NM_008522 (Ltf) [3]: 3.9908
- Gene expression data NM_008576 (Abcc1) [3]: −1.312
- Gene expression data NM_011176 (St14) [3]: 2.078
- Gene expression data NM_011316 (Saa4) [3]: 2.611
- Gene expression data NM_012006 (Acot1) [3]: 3.959
- Gene expression data NM_013866 (Zfp385) [3]: 2.3
- Gene expression data NM_018770 (Igsf4a) [3]: −2.054
- Gene expression data NM_021451 (Pmaip1) [3]: 2.681
- Gene expression data NM_025770 (Atg10) [3]: −1.329
- Gene expression data NM_028803 (Gbe1) [3]: −1.8898
- Gene expression data NM_030697 (Ankrd47) [3]: 3.874
- Gene expression data NM_053168 (Trim11) [3]: 1.4821
- Gene expression data NM_134188 (Acot2) [3]: −0.06593
- Gene expression data Y15910 (Diap2) [3]: −2.813
